Reference: ChEMBL document CHEMBL1124139, “2,4-Dihydro-3H-1,2,4-triazole-3-thiones as potential antidepressant agents” (J Med Chem, 1988)

Key:
Mus musculus [1] = species: Mus musculus; experiment: Antidepressant activity was evaluated by measuring its ability to antagonize reserpine-induced ptosis in mice; format: functional
Mus musculus [2] = species: Mus musculus; experiment: Antidepressant activity was evaluated by measuring its ability to antagonize RO 4-1284-induced hypothermia in mice; format: functional
[3] = Acute cytotoxicity was evaluated as LD50 in mice (ip); format: organism-based; conditions: mouse, in vivo
Rattus norvegicus [4] = species: Rattus norvegicus; experiment: Concentration required to inhibit [3H]- NE(norepinephrine) uptake in to rat cortical synaptosomes; format: functional; design: scale not given: the % may be the effect or the level left; conditions: Brain
Rattus norvegicus [5] = experiment: Percent inhibitory activity caused by norepinephrine after 1 i.p. injection of 10 mg/kg administered (acute treatment); format: functional; conditions: ip, route intraperitoneal
Rattus norvegicus [6] = experiment: Inhibitory activity of compound against ability of NE to enhance the inhibition produced by GABA after 1 i.p. injection of 10 mg/kg administered (acute treatment); format: functional; conditions: ip, route intraperitoneal
Rattus norvegicus [7] = experiment: Percent inhibitory activity caused by norepinephrine after ip injection of 10 mg/kg administered once a day for 21 days (chronic treatment); format: functional; conditions: 504 h, route intraperitoneal
Rattus norvegicus [8] = experiment: Inhibitory activity of compound against ability of NE to enhance the inhibition produced by GABA after ip injection of 10 mg/kg administered once a day for 21 days (chronic treatment); format: functional; conditions: 504 h, route intraperitoneal
[9] = biological target: T1, Amine oxidase [flavin-containing] A (Rattus norvegicus, UniProt P21396); experiment: Concentration required to inhibit Monoamine oxidase A activity in rat brain using [14C]5-HT; format: tissue-based
T1 sequence (P21396 whole entry): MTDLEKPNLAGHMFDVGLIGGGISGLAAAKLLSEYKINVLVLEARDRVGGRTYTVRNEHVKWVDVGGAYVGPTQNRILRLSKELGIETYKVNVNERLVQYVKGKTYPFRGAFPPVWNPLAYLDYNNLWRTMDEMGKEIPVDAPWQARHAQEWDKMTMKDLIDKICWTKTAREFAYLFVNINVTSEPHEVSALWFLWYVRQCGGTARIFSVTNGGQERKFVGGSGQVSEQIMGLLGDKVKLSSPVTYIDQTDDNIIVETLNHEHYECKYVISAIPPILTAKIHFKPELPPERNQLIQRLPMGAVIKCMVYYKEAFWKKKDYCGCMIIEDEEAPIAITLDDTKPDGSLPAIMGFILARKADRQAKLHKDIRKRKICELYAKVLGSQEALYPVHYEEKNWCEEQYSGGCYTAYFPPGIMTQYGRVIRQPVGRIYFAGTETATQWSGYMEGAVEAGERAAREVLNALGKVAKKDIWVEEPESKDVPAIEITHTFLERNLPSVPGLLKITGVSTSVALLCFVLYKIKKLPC

[10] = biological target: T2, Amine oxidase [flavin-containing] B (Rattus norvegicus, UniProt P19643); experiment: Concentration required to inhibit Monoamine oxidase B in rat brain using [14C]phenylethylamine; format: tissue-based; design: Control: scale not given: the % may be the effect or the level left
T2 sequence (P19643 whole entry): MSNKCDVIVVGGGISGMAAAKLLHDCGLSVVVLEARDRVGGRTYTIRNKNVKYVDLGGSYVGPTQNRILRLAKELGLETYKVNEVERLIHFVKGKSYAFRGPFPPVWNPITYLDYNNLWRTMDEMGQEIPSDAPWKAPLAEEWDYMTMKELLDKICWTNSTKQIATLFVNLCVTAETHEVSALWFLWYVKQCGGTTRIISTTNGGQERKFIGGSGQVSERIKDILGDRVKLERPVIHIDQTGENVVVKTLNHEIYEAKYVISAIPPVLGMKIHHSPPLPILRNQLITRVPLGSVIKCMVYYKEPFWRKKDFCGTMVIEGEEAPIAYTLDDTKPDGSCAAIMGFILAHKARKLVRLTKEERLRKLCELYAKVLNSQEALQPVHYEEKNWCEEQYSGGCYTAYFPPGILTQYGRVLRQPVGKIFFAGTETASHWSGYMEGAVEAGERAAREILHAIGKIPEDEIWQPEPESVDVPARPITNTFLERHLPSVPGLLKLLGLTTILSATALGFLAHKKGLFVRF

Rattus norvegicus [11] = experiment: Ability of compound to inhibity the ability of NE to enhance the inhibition produced by GABA after 1 i.p. injection of 10 mg/kg administered (acute treatment); format: functional; conditions: ip, route intraperitoneal
Rattus norvegicus [12] = experiment: Ability of compound to inhibity the ability of NE to enhance the inhibition produced by GABA after ip injection of 10 mg/kg administered once a day for 21 days (chronic treatment); format: functional; conditions: 504 h, route intraperitoneal
Rattus norvegicus [13] = species: Rattus norvegicus; experiment: Concentration required to inhibit [3H]- NE(norepinephrine) uptake into rat cortical synaptosomes; format: functional; design: scale not given: the % may be the effect or the level left; conditions: Brain

Structure (SMILES)	ED50 (Mus musculus [1]) [mg/kg]	ED50 (Mus musculus [2]) [mg/kg]	LD50 [3] [mg/kg]	also measured
CC(Cc1ccccc1)NN (stereo not given) [PHENIPRAZINE]	1.61	1.1	100	–
CCn1nc(-c2ccc(Cl)cc2)n(C)c1=S	100	> 50	400	–
Fc1ccc(-c2n[nH]c(S)n2)cc1	> 200	> 50	400	–
Cc1ccc(-c2nn(C)c(=S)n2C)cc1	4.2	1.74	400	–
CNCCCN1c2ccccc2CCc2ccccc21 [DESIPRAMINE]	1.86	0.94	75	Control (Rattus norvegicus [4]): 37%; inhibition in vivo at 10 mg/kg (Rattus norvegicus [5]): 3.5%; inhibition in vivo at 10 mg/kg (Rattus norvegicus [6]): 68%; inhibition in vivo at 10 mg/kg (Rattus norvegicus [7]): 7.8%; inhibition in vivo at 10 mg/kg (Rattus norvegicus [8]): 49%
CNCCC=C1c2ccccc2CCc2ccccc21 [NORTRIPTYLINE]	4.85	0.71	50	–
Cn1nc(-c2ccc(F)cc2)n(C)c1=S	1	0.61	200	Control (Rattus norvegicus [4]): 104%; MAO-A activity remaining (% of control) [9]: 70%; MAO-B activity (% of control) [10]: 90%
Cn1nc(-c2ccc(Cl)cc2)n(C)c1=S	0.27	1.34	400	inhibition in vivo at 10 mg/kg (Rattus norvegicus [11]): 33%; Control (Rattus norvegicus [4]): 90%; inhibition in vivo at 10 mg/kg (Rattus norvegicus [5]): 6.3%; inhibition in vivo at 10 mg/kg (Rattus norvegicus [7]): 10.9%; MAO-A activity remaining (% of control) [9]: 109%; MAO-B activity (% of control) [10]: 75%; inhibition in vivo at 10 mg/kg (Rattus norvegicus [12]): 0%
Cn1c(S)nnc1-c1ccccc1	> 200	> 50	> 800	–
Cn1nc(-c2cccc3ccccc23)n(C)c1=S	> 200	> 50	> 800	–
Cn1nc(-c2ccccc2F)n(C)c1=S	0.23	0.74	400	Control (Rattus norvegicus [13]): 106%; MAO-A activity remaining (% of control) [9]: 72%; MAO-B activity (% of control) [10]: 96%
Cn1nc(-c2c(F)cccc2F)n(C)c1=S	0.36	0.44	400	Control (Rattus norvegicus [4]): 105%; MAO-A activity remaining (% of control) [9]: 104%; MAO-B activity (% of control) [10]: 97%
CN(C)CCCN1c2ccccc2CCc2ccccc21 [IMIPRAMINE]	–	0.5	–	–
Cn1nc(-c2cccc(C(F)(F)F)c2)n(C)c1=S	> 200	> 50	400	–
Cn1nc(-c2ccc(Cl)c(Cl)c2)n(C)c1=S	4.4	29	> 800	–
C#CCN(C)[C@H](C)Cc1ccccc1 [SELEGILINE]	4.9	1.8	200	Control [10]: 13%
Sc1n[nH]c(-c2ccc(Cl)cc2)n1	> 200	> 50	> 800	–
CNCCCC1c2ccccc2C=Cc2ccccc21 [PROTRIPTYLINE]	0.43	0.14	50	–

Structure (SMILES)	ED50 (Mus musculus [1]) [mg/kg]	ED50 (Mus musculus [2]) [mg/kg]	LD50 [3] [mg/kg]	also measured
CN(C)CCC=C1c2ccccc2CCc2ccccc21 [AMITRIPTYLINE]	8.73	0.36	100	–
Cn1c(S)nnc1-c1ccc(Cl)cc1	> 200	> 50	> 800	–
Cn1nc(-c2ccc(Cl)cc2)nc1S	> 200	> 50	> 800	–
CCn1c(-c2ccccc2)nn(C)c1=S	1.2	0.58	400	–
Cn1nc(-c2cccc(F)c2)n(C)c1=S [SURITOZOLE]	0.29	0.37	200	Control (Rattus norvegicus [4]): 110%; MAO-A activity remaining (% of control) [9]: 105%; MAO-B activity (% of control) [10]: 96%
Cn1nc(-c2ccccc2Cl)n(C)c1=S	0.58	0.37	200	–
Cn1nc(-c2ccccc2)n(C)c1=O	> 200	> 50	400	–
Cn1nc(-c2ccccc2)n(C)c1=S	0.13	0.15	100	Control (Rattus norvegicus [13]): 92%; MAO-A activity remaining (% of control) [9]: 104%; MAO-B activity (% of control) [10]: 110%
Cn1nc(-c2ccc(Cl)cc2Cl)n(C)c1=S	–	> 25	> 80	–
Cn1nc(-c2c(Cl)cccc2Cl)n(C)c1=S	> 100	> 50	400	–
Cn1c(S)nnc1-c1ccccc1F	> 200	> 25	> 800	–
C#CCN(C)Cc1ccccc1 [PARGYLINE]	37.1	13.6	400	–
Cn1nc(-c2ccc3c(c2)OCO3)n(C)c1=S	> 200	> 50	> 800	–
CCn1c(-c2ccc(Cl)cc2)nn(C)c1=S	21.2	> 50	> 800	–
CCCn1c(-c2ccc(Cl)cc2)nn(C)c1=S	12.5	> 12.5	200	–
Cn1nc(-c2ccc(F)cc2F)n(C)c1=S	2.37	1	400	–
COc1ccc(-c2nn(C)c(=S)n2C)cc1	3.3	> 25	> 800	–
